From patent US11203613B2, “Peptidomimetic proteasome inhibitors” (CORNELL UNIVERSITY, priority 2017, dated 2021)

target: Human Constitutive (Hu C-20S) β5 Active Subunit (Homo sapiens, UniProt P28074); assay: IC50 determination, human constitutive 20S proteasome β5c (suc-LLVY-AMC hydrolysis); format: biochemical; conditions: Table 3; IC50 against human constitutive β5 active subunit; read-out: Hu-C20S β5

Compound | IC50 [µM]
C[C@H](NC(=O)[C@H](CC(=O)N1CCCC[C@@H]1C)NC(=O)C1CC2(C1)CC(F)(F)C2)c1nc2c(F)cccc2[nH]1 [CEN-57, 6,6-Difluoro-N—((S)-1-(((S)-1-(4-fluoro-1H-benzo[d]imidazol-2-yl)ethyl)amino)-4-((S)-2-methylpiperidin-1-yl)-1,4-dioxobutan-2-yl)spiro[3.3]heptane-2-carboxamide] | 28
CC(C)CCS(=O)(=O)N[C@@H](CC(=O)N1CCC[C@@H]1c1ccccc1)C(=O)NC(C)c1nc2ccccc2[nH]1 (stereo partly drawn) [CEN-58, (2S)—N-(1-(1H-Benzo[d]imidazol-2-yl)ethyl)-2-((3-methylbutyl)sulfonamido)-4-oxo-4-((R)-2-phenylpyrrolidin-1-yl)butanamide] | 13.9
CC(C)CCS(=O)(=O)N[C@@H](CC(=O)N1CCC[C@@H]1c1ccccc1)C(=O)N[C@@H](C)c1nc2ccccc2[nH]1 [CEN-59, (S)—N—((S)-1-(1H-Benzo[d]imidazol-2-yl)ethyl)-2-((3-methylbutyl)sulfonamido)-4-oxo-4-((R)-2-phenylpyrrolidin-1-yl)butanamide] | 10
CC(C)CCS(=O)(=O)N[C@@H](CC(=O)N1CCC[C@@H]1c1ccccc1)C(=O)N[C@H](C)c1nc2ccccc2[nH]1 [CEN-60, (S)—N—((R)-1-(1H-Benzo[d]imidazol-2-yl)ethyl)-2-((3-methylbutyl)sulfonamido)-4-oxo-4-((R)-2-phenylpyrrolidin-1-yl)butanamide] | 10.7
C[C@H](NC(=O)[C@H](CC(=O)N1CCCC1C1CC1)NC(=O)C1CC2(C1)CC(F)(F)C2)c1nc2cccc(F)c2[nH]1 (stereo partly drawn) [CEN-61, N-((2S)-4-(2-Cyclopropylpyrrolidin-1-yl)-1-(((S)-1-(7-fluoro-1H-benzo[d]imidazol-2-yl)ethyl)amino)-1,4-dioxobutan-2-yl)-6,6-difluorospiro[3.3]heptane-2-carboxamide] | 8.8
C[C@H](NC(=O)[C@H](CC(=O)N1CCC[C@H]1c1ccccc1)NC(=O)C1CC2(COC2)C1)c1nc2cccc(F)c2[nH]1 [CEN-63, N—((S)-1-(((S)-1-(7-Fluoro-1H-benzo[d]imidazol-2-yl)ethyl)amino)-1,4-dioxo-4-((S)-2-phenylpyrrolidin-1-yl)butan-2-yl)-2-oxaspiro[3.3]heptane-6-carboxamide] | 6.8
C[C@H](NC(=O)[C@@H](N)CC(=O)N1CCC[C@@H]1c1ccccc1)c1ncc(-c2ccccc2F)[nH]1 [CEN-74, (S)-2-Amino-N—((S)-1-(5-(2-fluorophenyl)-1H-imidazol-2-yl)ethyl)-4-oxo-4-((R)-2-phenylpyrrolidin-1-yl)butanamide] | 94
Cc1cc(C(=O)N[C@@H](CC(=O)N2CCC[C@@H]2c2ccccc2)C(=O)N[C@@H](C)c2ncc(-c3ccccc3F)[nH]2)no1 [CEN-75, N—((S)-1-(((S)-1-(5-(2-Fluorophenyl)-1H-imidazol-2-yl)ethyl)amino)-1,4-dioxo-4-((R)-2-phenylpyrrolidin-1-yl)butan-2-yl)-5-methylisoxazole-3-carboxamide] | > 100
CC(C)CCC(=O)N[C@@H](CC(=O)N1CCCC1)C(=O)N[C@@H](C)c1ncc(-c2ccc(F)cc2F)[nH]1 [CEN-77, N—((S)-1-(((S)-1-(5-(2,4-Difluorophenyl)-1H-imidazol-2-yl)ethyl)amino)-1,4-dioxo-4-(pyrrolidin-1-yl)butan-2-yl)-4-methylpentanamide] | 10.4
CC(C)CCC(=O)N[C@@H](CC(=O)N(C)C(C)C)C(=O)N[C@@H](C)c1ncc(-c2ccc(F)cc2F)[nH]1 [CEN-78, (S)—N1-((S)-1-(5-(2,4-Difluorophenyl)-1H-imidazol-2-yl)ethyl)-N4-isopropyl-N4-methyl-2-(4-methylpentanamido)succinamide] | 14.9
C[C@H](NC(=O)[C@H](CC(=O)N1CCCC[C@@H]1C)NC(=O)CC1CC1)c1ncc(-c2ccc(F)cc2F)[nH]1 [CEN-81, (S)-2-(2-Cyclopropylacetamido)-N—((S)-1-(5-(2,4-difluorophenyl)-1H-imidazol-2-yl)ethyl)-4-((S)-2-methylpiperidin-1-yl)-4-oxobutanamide] | 10.5
C[C@H](NC(=O)[C@H](CC(=O)N1CCCC[C@@H]1C)NC(=O)C1CCC1)c1ncc(-c2ccc(F)cc2F)[nH]1 [CEN-82, N—((S)-1-(((S)-1-(5-(2,4-Difluorophenyl)-1H-imidazol-2-yl)ethyl)amino)-4-((S)-2-methylpiperidin-1-yl)-1,4-dioxobutan-2-yl)cyclobutanecarboxamide] | 2.4
C[C@H](NC(=O)[C@H](CC(=O)N1CCCC1)NC(=O)CCC(C)(C)C)c1ncc(-c2ccc(F)cc2F)[nH]1 [CEN-83, N—((S)-1-(((S)-1-(5-(2,4-Difluorophenyl)-1H-imidazol-2-yl)ethyl)amino)-1,4-dioxo-4-(pyrrolidin-1-yl)butan-2-yl)-4,4-dimethylpentanamide] | 10.3
CC(C)C(=O)CN[C@@H](CC(=O)N1CCCC[C@@H]1C)C(=O)N[C@@H](C)c1ncc(-c2ccc(F)cc2F)[nH]1 [CEN-85, (S)—N—((S)-1-(5-(2,4-Difluorophenyl)-1H-imidazol-2-yl)ethyl)-2-((3-methyl-2-oxobutyl)amino)-4-((S)-2-methylpiperidin-1-yl)-4-oxobutanamide] | 9.9

The remaining lines, values ahead:

IC50 [µM] | Compound
2.4 | O=C(N[C@@H](CC(=O)N1CCCC1C1CC1)C(=O)NC1(c2nc3cccc(F)c3[nH]2)CC1)C1CC2(C1)CC(F)(F)C2 (stereo partly drawn) [CEN-64, N-((2S)-4-(2-Cyclopropylpyrrolidin-1-yl)-1-((1-(7-fluoro-1H-benzo[d]imidazol-2-yl)cyclopropyl)amino)-1,4-dioxobutan-2-yl)-6,6-difluorospiro[3.3]heptane-2-carboxamide]
> 100 | C[C@H](NC(=O)[C@H](CC(=O)N1CCC[C@@H]1c1ccccc1)NC(=O)CCCC(F)(F)F)c1nc2ccccc2n1C [CEN-65, 5,5,5-Trifluoro-N—((S)-1-(((S)-1-(1-methyl-1H-benzo[d]imidazol-2-yl)ethyl)amino)-1,4-dioxo-4-((R)-2-phenylpyrrolidin-1-yl)butan-2-yl)pentanamide]
> 100 | C[C@H](NC(=O)[C@H](CC(=O)N1CCC[C@@H]1c1ccccc1)NC(=O)CCCC(F)(F)F)c1nc2ccccc2o1 [CEN-66, N—((S)-1-(((S)-1-(Benzo[d]oxazol-2-yl)ethyl)amino)-1,4-dioxo-4-((R)-2-phenylpyrrolidin-1-yl)butan-2-yl)-5,5,5-trifluoropentanamide]
> 100 | C[C@H](NC(=O)[C@H](CC(=O)N1CCC[C@@H]1c1ccccc1)NC(=O)CCCC(F)(F)F)c1nc2ccccc2s1 [CEN-67, N—((S)-1-(((S)-1-(Benzo[d]thiazol-2-yl)ethyl)amino)-1,4-dioxo-4-((R)-2-phenylpyrrolidin-1-yl)butan-2-yl)-5,5,5-trifluoropentanamide]
> 100 | C[C@H](NC(=O)[C@H](CC(=O)N1CCC[C@@H]1c1ccccc1)NC(=O)C1CC2(C1)CC(F)(F)C2)c1nc2ccccc2o1 [CEN-68, N—((S)-1-(((S)-1-(Benzo[d]oxazol-2-yl)ethyl)amino)-1,4-dioxo-4-((R)-2-phenylpyrrolidin-1-yl)butan-2-yl)-6,6-difluorospiro[3.3]heptane-2-carboxamide]
> 100 | Cc1ccc(S(=O)(=O)N[C@@H](CC(=O)NC(C)(C)C)C(=O)NC2(c3nc4c(F)cccc4[nH]3)CC2)cc1 [CEN-69, (S)—N^4-(tert-Butyl)-N^1-(1-(4-fluoro-1H-benzo[d]Imidazol-2-yl)cyclopropyl)-2-((4-methylphenyl)sulfonamido)succinamide]
> 100 | Cc1ccc(S(=O)(=O)N[C@@H](CCC(=O)NC(C)(C)C)C(=O)NC2(c3nc4c(F)cccc4[nH]3)CC2)cc1 [CEN-70, (S)—N^5-(tert-Butyl)-N^1-(1-(4-fluoro-1H-benzo[d]Imidazol-2-yl)cyclopropyl)-2-((4-methylphenyl)sulfonamido)pentanediamide]
> 100 | Cc1ccc(S(=O)(=O)N[C@H](C(=O)N[C@@H](C)c2nc3cccc(F)c3[nH]2)[C@@H](C)O)cc1 [CEN-71, (2S,3R)—N—((S)-1-(7-Fluoro-1H-benzo[d]imidazol-2-yl)ethyl)-3-hydroxy-2-((4-methylphenyl)sulfonamido)butanamide]
> 100 | C[C@H](NC(=O)[C@@H](NC(=O)CCc1ccc(F)cc1)[C@@H](C)O)c1nc2c(F)cccc2[nH]1 [CEN-72, (2S,3R)—N—((S)-1-(4-Fluoro-1H-benzo[d]imidazol-2-yl)ethyl)-2-(3-(4-fluorophenyl)propanamido)-3-hydroxybutanamide]
> 100 | CC(C)(C)NC(=O)CC[C@H](NC(=O)CCc1ccc(F)cc1)C(=O)NC1(c2nc3cccc(F)c3[nH]2)CC1 [CEN-73, (S)—N5-(tert-Butyl)-N1-(1-(7-fluoro-1H-benzo[d]Imidazol-2-yl)cyclopropyl)-2-(3-(4-fluorophenyl)propanamido)pentanediamide]
14.2 | C[C@H](NC(=O)[C@@H](N)CC(=O)N1CCCC[C@@H]1C)c1ncc(-c2ccc(F)cc2F)[nH]1 [CEN-76, (S)-2-Amino-N—((S)-1-(5-(2,4-difluorophenyl)-1H-imidazol-2-yl)ethyl)-4-((S)-2-methylpiperidin-1-yl)-4-oxobutanamide]
7.3 | CCN(CC)C(=O)C[C@H](NC(=O)CCC(C)C)C(=O)N[C@@H](C)c1ncc(-c2ccc(F)cc2F)[nH]1 [CEN-79, (S)—N1-((S)-1-(5-(2,4-Difluorophenyl)-1H-imidazol-2-yl)ethyl)-N4,N4-diethyl-2-(4-methylpentanamido)succinamide]
16.7 | Cc1cc(C(=O)N[C@@H](CC(=O)N2CCCC2)C(=O)N[C@@H](C)c2ncc(-c3ccc(F)cc3F)[nH]2)no1 [CEN-80, N—((S)-1-(((S)-1-(5-(2,4-Difluorophenyl)-1H-imidazol-2-yl)ethyl)amino)-1,4-dioxo-4-(pyrrolidin-1-yl)butan-2-yl)-5-methylisoxazole-3-carboxamide]
7.3 | CC(C)CCC(=O)N[C@@H](CC(=O)N1CCCCC1)C(=O)N[C@@H](C)c1ncc(-c2ccc(F)cc2F)[nH]1 [CEN-84, N—((S)-1-(((S)-1-(5-(2,4-Difluorophenyl)-1H-imidazol-2-yl)ethyl)amino)-1,4-dioxo-4-(piperidin-1-yl)butan-2-yl)-4-methylpentanamide]
